The values below come from patent US20090299044A1 (priority 2006, published 2009).

Experiment [1] has as its target T1, human Kv1.1 (HEK293) (Homo sapiens, UniProt Q09470).
T1 construct: expressed in transfected cells; host or cells: HEK293
Description: cell-based.

Experiment [2] has as its target T2, human Kv1.3 (CHO) (Homo sapiens, UniProt P22001).
T2 construct: expressed in transfected cells; host or cells: CHO
Description: cell-based.

What is called pIC50 is the IC50 on a negative log10 scale, so that one unit is a factor of ten.

pIC50: −log10 of the molar value. Bridge positions count the residues as written; N and C are the ends. Peptide text beside a SMILES is read from it. Bounds are passed on as bounds.

T1 sequence (Q09470 whole entry): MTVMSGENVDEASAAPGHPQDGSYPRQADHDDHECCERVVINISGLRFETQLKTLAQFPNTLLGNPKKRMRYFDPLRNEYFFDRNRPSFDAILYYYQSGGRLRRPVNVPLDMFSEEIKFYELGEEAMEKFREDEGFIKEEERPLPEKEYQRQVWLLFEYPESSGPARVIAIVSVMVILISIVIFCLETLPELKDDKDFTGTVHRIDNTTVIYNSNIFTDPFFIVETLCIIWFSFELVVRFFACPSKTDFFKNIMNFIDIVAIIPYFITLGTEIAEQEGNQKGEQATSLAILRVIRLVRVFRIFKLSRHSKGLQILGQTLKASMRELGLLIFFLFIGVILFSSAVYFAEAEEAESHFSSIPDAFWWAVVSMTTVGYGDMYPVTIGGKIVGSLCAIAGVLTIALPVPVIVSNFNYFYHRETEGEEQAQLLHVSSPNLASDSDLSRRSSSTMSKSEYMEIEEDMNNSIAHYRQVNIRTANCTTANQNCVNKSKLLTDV
T2 sequence (P22001 whole entry): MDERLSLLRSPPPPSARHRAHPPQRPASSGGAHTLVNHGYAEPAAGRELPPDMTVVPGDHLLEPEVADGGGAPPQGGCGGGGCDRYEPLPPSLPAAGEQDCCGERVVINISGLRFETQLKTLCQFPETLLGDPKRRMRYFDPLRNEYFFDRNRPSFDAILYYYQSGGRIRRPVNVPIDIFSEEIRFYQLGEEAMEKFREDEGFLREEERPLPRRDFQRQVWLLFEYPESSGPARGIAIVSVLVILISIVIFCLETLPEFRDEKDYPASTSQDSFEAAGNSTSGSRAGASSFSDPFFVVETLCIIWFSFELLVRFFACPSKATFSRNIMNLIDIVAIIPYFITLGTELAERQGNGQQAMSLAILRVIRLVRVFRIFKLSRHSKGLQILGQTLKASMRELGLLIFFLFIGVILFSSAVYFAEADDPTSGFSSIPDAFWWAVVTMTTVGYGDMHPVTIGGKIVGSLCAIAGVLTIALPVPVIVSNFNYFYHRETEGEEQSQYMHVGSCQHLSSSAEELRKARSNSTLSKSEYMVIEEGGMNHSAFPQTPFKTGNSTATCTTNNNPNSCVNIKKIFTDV

Regarding `CC[C@H](C)[C@@H]1NC(=O)[C@H](CCCCN)NC(=O)[C@@H](NC(=O)[C@H](CCCCN)NC(=O)[C@@H](NC(=O)[C@H](CC(N)=O)NC(=O)[C@@H](NC(=O)[C@@H](NC(=O)[C@@H](NC(=O)CN)C(C)C)[C@@H](C)CC)[C@@H](C)CC)C(C)C)CSSC[C@@H]2NC(=O)[C@H](CCCCN)NC(=O)CNC(=O)[C@H](CCCNC(=N)N)NC(=O)[C@H](CCCNC(=N)N)NC(=O)[C@H](CCSC)NC(=O)CNC(=O)[C@H](C)NC(=O)[C@H](CCCCN)NC(=O)[C@H](CCCCN)NC(=O)[C@@H]3CSSC[C@@H](C(=O)N[C@H](C(=O)N4CCC[C@H]4C(=O)N[C@@H](CCCCN)C(=O)O)[C@@H](C)O)NC(=O)[C@H](Cc4c[nH]cn4)NC(=O)[C@H](CSSC[C@H](NC(=O)[C@H](CCC(N)=O)NC(=O)[C@H](CCCNC(=N)N)NC(=O)[C@H](CO)NC1=O)C(=O)N[C@@H](CC(C)C)C(=O)N[C@@H](CCC(=O)O)C(=O)N1CCC[C@H]1C(=O)N3)NC(=O)[C@H](CCCCN)NC(=O)CNC(=O)[C@H](CC(N)=O)NC(=O)[C@H](CCSC)NC2=O` [F25R] (H-GVIINVKCKISRQCLEPCKKAGMRRGKCMNGKCHCTPK-OH; disulfide 8-28, 14-33, 18-35), the negative logarithm of the IC50 (pIC50) is 9.09 in experiment [1] and below 8.48 in experiment [2].
With `CC[C@H](C)[C@@H]1NC(=O)[C@H](CCCCN)NC(=O)[C@@H](NC(=O)[C@H](CCCCN)NC(=O)[C@@H](NC(=O)[C@H](CC(N)=O)NC(=O)[C@@H](NC(=O)[C@@H](NC(=O)[C@@H](NC(=O)[C@H](C)N)C(C)C)[C@@H](C)CC)[C@@H](C)CC)C(C)C)CSSC[C@@H]2NC(=O)[C@H](CCCCN)NC(=O)CNC(=O)[C@H](Cc3ccccc3)NC(=O)[C@H](CCCNC(=N)N)NC(=O)[C@H](CCSC)NC(=O)CNC(=O)[C@H](C)NC(=O)[C@H](CCCCN)NC(=O)[C@H](CCCCN)NC(=O)[C@@H]3CSSC[C@@H](C(=O)N[C@H](C(=O)N4CCC[C@H]4C(=O)N[C@@H](CCCCN)C(=O)O)[C@@H](C)O)NC(=O)[C@H](Cc4c[nH]cn4)NC(=O)[C@H](CSSC[C@H](NC(=O)[C@H](CCC(N)=O)NC(=O)[C@H](CCCNC(=N)N)NC(=O)[C@H](CO)NC1=O)C(=O)N[C@@H](CC(C)C)C(=O)N[C@@H](CCC(=O)O)C(=O)N1CCC[C@H]1C(=O)N3)NC(=O)[C@H](CCCCN)NC(=O)CNC(=O)[C@H](CC(N)=O)NC(=O)[C@H](CCSC)NC2=O` [G1A] (H-AVIINVKCKISRQCLEPCKKAGMRFGKCMNGKCHCTPK-OH; disulfide 8-28, 14-33, 18-35), the figures for the pIC50 in experiment [1] and in experiment [2] were 10.86 and 10.39, respectively.
The matching figures for `CC[C@H](C)[C@@H]1NC(=O)[C@H](CCCCN)NC(=O)[C@@H](NC(=O)[C@H](CCCCN)NC(=O)[C@@H](NC(=O)[C@H](CC(N)=O)NC(=O)[C@@H](NC(=O)[C@@H](NC(=O)[C@@H](NC(=O)[C@@H](N)CCC(=O)O)C(C)C)[C@@H](C)CC)[C@@H](C)CC)C(C)C)CSSC[C@@H]2NC(=O)[C@H](CCCCN)NC(=O)CNC(=O)[C@H](Cc3ccccc3)NC(=O)[C@H](CCCNC(=N)N)NC(=O)[C@H](CCSC)NC(=O)CNC(=O)[C@H](C)NC(=O)[C@H](CCCCN)NC(=O)[C@H](CCCCN)NC(=O)[C@@H]3CSSC[C@@H](C(=O)N[C@H](C(=O)N4CCC[C@H]4C(=O)N[C@@H](CCCCN)C(=O)O)[C@@H](C)O)NC(=O)[C@H](Cc4c[nH]cn4)NC(=O)[C@H](CSSC[C@H](NC(=O)[C@H](CCC(N)=O)NC(=O)[C@H](CCCNC(=N)N)NC(=O)[C@H](CO)NC1=O)C(=O)N[C@@H](CC(C)C)C(=O)N[C@@H](CCC(=O)O)C(=O)N1CCC[C@H]1C(=O)N3)NC(=O)[C@H](CCCCN)NC(=O)CNC(=O)[C@H](CC(N)=O)NC(=O)[C@H](CCSC)NC2=O` [G1E] (H-EVIINVKCKISRQCLEPCKKAGMRFGKCMNGKCHCTPK-OH; disulfide 8-28, 14-33, 18-35): 10.29 and 9.73.
In the same order, the values of `CC[C@H](C)[C@@H]1NC(=O)[C@H](CCCCN)NC(=O)[C@@H](NC(=O)[C@H](CCCCN)NC(=O)[C@@H](NC(=O)[C@H](CC(N)=O)NC(=O)[C@@H](NC(=O)[C@@H](NC(=O)[C@@H](NC(=O)[C@@H](N)CCCNC(=N)N)C(C)C)[C@@H](C)CC)[C@@H](C)CC)C(C)C)CSSC[C@@H]2NC(=O)[C@H](CCCCN)NC(=O)CNC(=O)[C@H](Cc3ccccc3)NC(=O)[C@H](CCCNC(=N)N)NC(=O)[C@H](CCSC)NC(=O)CNC(=O)[C@H](C)NC(=O)[C@H](CCCCN)NC(=O)[C@H](CCCCN)NC(=O)[C@@H]3CSSC[C@@H](C(=O)N[C@H](C(=O)N4CCC[C@H]4C(=O)N[C@@H](CCCCN)C(=O)O)[C@@H](C)O)NC(=O)[C@H](Cc4c[nH]cn4)NC(=O)[C@H](CSSC[C@H](NC(=O)[C@H](CCC(N)=O)NC(=O)[C@H](CCCNC(=N)N)NC(=O)[C@H](CO)NC1=O)C(=O)N[C@@H](CC(C)C)C(=O)N[C@@H](CCC(=O)O)C(=O)N1CCC[C@H]1C(=O)N3)NC(=O)[C@H](CCCCN)NC(=O)CNC(=O)[C@H](CC(N)=O)NC(=O)[C@H](CCSC)NC2=O` [G1R] (H-RVIINVKCKISRQCLEPCKKAGMRFGKCMNGKCHCTPK-OH; disulfide 8-28, 14-33, 18-35) are 11.00 and 10.16.
The matching figures for `CC[C@H](C)[C@@H]1NC(=O)[C@H](CCCCN)NC(=O)[C@@H](NC(=O)[C@H](CCCCN)NC(=O)[C@@H](NC(=O)[C@H](CC(N)=O)NC(=O)[C@@H](NC(=O)[C@@H](NC(=O)[C@@H](NC(=O)CN)C(C)C)[C@@H](C)CC)[C@@H](C)CC)C(C)C)CSSC[C@@H]2NC(=O)[C@H](CCCCN)NC(=O)CNC(=O)[C@H](Cc3ccccc3)NC(=O)[C@H](CCCNC(=N)N)NC(=O)[C@H](CCSC)NC(=O)[C@H](C)NC(=O)[C@H](C)NC(=O)[C@H](CCCCN)NC(=O)[C@H](CCCCN)NC(=O)[C@@H]3CSSC[C@@H](C(=O)N[C@H](C(=O)N4CCC[C@H]4C(=O)N[C@@H](CCCCN)C(=O)O)[C@@H](C)O)NC(=O)[C@H](Cc4c[nH]cn4)NC(=O)[C@H](CSSC[C@H](NC(=O)[C@H](CCC(N)=O)NC(=O)[C@H](CCCNC(=N)N)NC(=O)[C@H](CO)NC1=O)C(=O)N[C@@H](CC(C)C)C(=O)N[C@@H](CCC(=O)O)C(=O)N1CCC[C@H]1C(=O)N3)NC(=O)[C@H](CCCCN)NC(=O)CNC(=O)[C@H](CC(N)=O)NC(=O)[C@H](CCSC)NC2=O` [G22A] (H-GVIINVKCKISRQCLEPCKKAAMRFGKCMNGKCHCTPK-OH; disulfide 8-28, 14-33, 18-35): below 8.52 and below 8.52.
Turning to `CC[C@H](C)[C@@H]1NC(=O)[C@H](CCCCN)NC(=O)[C@@H](NC(=O)[C@H](CCCCN)NC(=O)[C@@H](NC(=O)[C@H](CC(N)=O)NC(=O)[C@@H](NC(=O)[C@@H](NC(=O)[C@@H](NC(=O)CN)C(C)C)[C@@H](C)CC)[C@@H](C)CC)C(C)C)CSSC[C@@H]2NC(=O)[C@H](CCCCN)NC(=O)CNC(=O)[C@H](Cc3ccccc3)NC(=O)[C@H](CCCNC(=N)N)NC(=O)[C@H](CCSC)NC(=O)[C@H](CCC(=O)O)NC(=O)[C@H](C)NC(=O)[C@H](CCCCN)NC(=O)[C@H](CCCCN)NC(=O)[C@@H]3CSSC[C@@H](C(=O)N[C@H](C(=O)N4CCC[C@H]4C(=O)N[C@@H](CCCCN)C(=O)O)[C@@H](C)O)NC(=O)[C@H](Cc4c[nH]cn4)NC(=O)[C@H](CSSC[C@H](NC(=O)[C@H](CCC(N)=O)NC(=O)[C@H](CCCNC(=N)N)NC(=O)[C@H](CO)NC1=O)C(=O)N[C@@H](CC(C)C)C(=O)N[C@@H](CCC(=O)O)C(=O)N1CCC[C@H]1C(=O)N3)NC(=O)[C@H](CCCCN)NC(=O)CNC(=O)[C@H](CC(N)=O)NC(=O)[C@H](CCSC)NC2=O` [G22E] (H-GVIINVKCKISRQCLEPCKKAEMRFGKCMNGKCHCTPK-OH; disulfide 8-28, 14-33, 18-35), the figures for the pIC50 in experiment [1] and in experiment [2] were 11.59 and 10.86, respectively.
The matching figures for `CC[C@H](C)[C@@H]1NC(=O)[C@H](CCCCN)NC(=O)[C@@H](NC(=O)[C@H](CCCCN)NC(=O)[C@@H](NC(=O)[C@H](CC(N)=O)NC(=O)[C@@H](NC(=O)[C@@H](NC(=O)[C@@H](NC(=O)CN)C(C)C)[C@@H](C)CC)[C@@H](C)CC)C(C)C)CSSC[C@@H]2NC(=O)[C@H](CCCCN)NC(=O)CNC(=O)[C@H](Cc3ccccc3)NC(=O)[C@H](CCCNC(=N)N)NC(=O)[C@H](CCSC)NC(=O)[C@H](CCCNC(=N)N)NC(=O)[C@H](C)NC(=O)[C@H](CCCCN)NC(=O)[C@H](CCCCN)NC(=O)[C@@H]3CSSC[C@@H](C(=O)N[C@H](C(=O)N4CCC[C@H]4C(=O)N[C@@H](CCCCN)C(=O)O)[C@@H](C)O)NC(=O)[C@H](Cc4c[nH]cn4)NC(=O)[C@H](CSSC[C@H](NC(=O)[C@H](CCC(N)=O)NC(=O)[C@H](CCCNC(=N)N)NC(=O)[C@H](CO)NC1=O)C(=O)N[C@@H](CC(C)C)C(=O)N[C@@H](CCC(=O)O)C(=O)N1CCC[C@H]1C(=O)N3)NC(=O)[C@H](CCCCN)NC(=O)CNC(=O)[C@H](CC(N)=O)NC(=O)[C@H](CCSC)NC2=O` [G22R] (H-GVIINVKCKISRQCLEPCKKARMRFGKCMNGKCHCTPK-OH; disulfide 8-28, 14-33, 18-35): 11.46 and 10.62.
The matching figures for `CC[C@H](C)[C@@H]1NC(=O)[C@H](CCCCN)NC(=O)[C@@H](NC(=O)[C@H](CCCCN)NC(=O)[C@@H](NC(=O)[C@H](CC(N)=O)NC(=O)[C@@H](NC(=O)[C@@H](NC(=O)[C@@H](NC(=O)CN)C(C)C)[C@@H](C)CC)[C@@H](C)CC)C(C)C)CSSC[C@@H]2NC(=O)[C@H](CCCCN)NC(=O)[C@H](C)NC(=O)[C@H](Cc3ccccc3)NC(=O)[C@H](CCCNC(=N)N)NC(=O)[C@H](CCSC)NC(=O)CNC(=O)[C@H](C)NC(=O)[C@H](CCCCN)NC(=O)[C@H](CCCCN)NC(=O)[C@@H]3CSSC[C@@H](C(=O)N[C@H](C(=O)N4CCC[C@H]4C(=O)N[C@@H](CCCCN)C(=O)O)[C@@H](C)O)NC(=O)[C@H](Cc4c[nH]cn4)NC(=O)[C@H](CSSC[C@H](NC(=O)[C@H](CCC(N)=O)NC(=O)[C@H](CCCNC(=N)N)NC(=O)[C@H](CO)NC1=O)C(=O)N[C@@H](CC(C)C)C(=O)N[C@@H](CCC(=O)O)C(=O)N1CCC[C@H]1C(=O)N3)NC(=O)[C@H](CCCCN)NC(=O)CNC(=O)[C@H](CC(N)=O)NC(=O)[C@H](CCSC)NC2=O` [G26A] (H-GVIINVKCKISRQCLEPCKKAGMRFAKCMNGKCHCTPK-OH; disulfide 8-28, 14-33, 18-35): 9.13 and 9.15.
